The values below come from patent US7883715B2, “Pesticide compositions containing dicarboxylic acids” (Monsanto Technology LLC, priority 2002, dated 2011).

Like-named read-outs stand apart in the source and are kept apart here.

Test [1] relates to ABUTH. Kind of test: Greenhouse herbicidal effectiveness, ABUTH. In kind it is in vivo, velvetleaf. The conditions noted are these: for efficacy ABUTH: Table 19A, 16 days after treatment; for inhibition at 75 g/ha / inhibition at 100 g/ha / inhibition at 150 g/ha / inhibition at 200 g/ha: Abutilon theophrasti, 408 h, 17 days after treatment; for inhibition at 75 g/ha: 75 g a.e./ha; for inhibition at 150 g/ha: 150 g a.e./ha; for % inhibition ABUTH (14 DAT) / % inhibition ABUTH (20 DAT): oxalate/oxalic acid alone, Table 44A. From the text:
(§1) The following greenhouse testing procedure was used for evaluating compositions of the Examples to determine herbicidal effectiveness, except where otherwise indicated.
(§2) Seeds of the plant species indicated were planted in 88 mm square pots in a soil mix which was previously sterilized and prefertilized with a 14-14-14 NPK slow release fertilizer at a rate of 3.6 kg/m3. The pots were placed in a greenhouse with sub-irrigation. About one week after emergence, seedlings were thinned as needed, including removal of any unhealthy or abnormal plants, to create a uniform series of test pots.
(§3) The plants were maintained for the duration of the test in the greenhouse where they received a minimum of 14 hours of light per day. […] Exposure temperatures were not precisely controlled but averaged about 29° C. during the day and about 21° C. during the night. Plants were sub-irrigated throughout the test to ensure adequate soil moisture levels.
(§4) Pots were assigned to different treatments in a fully randomized experimental design with 6 replications. A set of pots was left untreated as a reference against which affects of the treatments could later be evaluated.
(§5) Application of glyphosate compositions was made by spraying with a track sprayer fitted with a 9501E nozzle calibrated to deliver a spray volume of 93 liters per hectare (l/ha) at a pressure of 165 kilopascals (kPa). After treatment, pots were returned to the greenhouse until ready for evaluation.
(§6) Treatments were made using dilute aqueous compositions. These could be prepared as spray compositions directly from their ingredients, or by dilution with water of preformulated concentrate compositions.
(§7) For evaluation of herbicidal effectiveness, all plants in the test were examined by a single practiced technician, who recorded percent control, a visual measurement of the effectiveness of each treatment by comparison with untreated plants. […] The reported % control values represent the average for all replicates of each treatment.

Test [2] concerns ECHCF. Briefly: Greenhouse herbicidal effectiveness, ECHCF. In kind it is in vivo, Japanese millet, barnyardgrass. The conditions noted are these: for efficacy ECHCF: Table 19A, 16 days after treatment; for inhibition at 75 g/ha / inhibition at 100 g/ha / inhibition at 150 g/ha / inhibition at 200 g/ha: 408 h, 17 days after treatment; for inhibition at 75 g/ha: 75 g a.e./ha; for inhibition at 150 g/ha: 150 g a.e./ha.
Excerpt: as §1, §2, §3, §4, §5, §6, §7

Test [3] deals with TRZVX. Briefly: Greenhouse herbicidal effectiveness, TRZVX. In kind it is in vivo, wheat. Particulars: Table 19A, 16 days after treatment.
Excerpt: as §1, §2, §3, §4, §5, §6, §7

[4] abbreviates: 30 g a.e./ha, tank mix OTH1 1 % v/v.
The mark [5] stands for this setting: 70 g a.e./ha, tank mix OTH1 1 % v/v.
The mark [6] stands for this setting: 100 g a.e./ha, tank mix OTH1 1 % v/v.
Setting [7] is: 200 g a.e./ha, tank mix OTH1 1 % v/v.
The mark [8] stands for this setting: Table 19B, OTH1 1 % v/v, read-out: % inhibition ABUTH.
[9] abbreviates: Table 19B, no OTH22, no OTH1, read-out: % inhibition ABUTH.
[10] abbreviates: Table 19B, OTH1 1 % v/v, read-out: % inhibition ECHCF.
[11] abbreviates: Table 19B, no OTH22, no OTH1, read-out: % inhibition ECHCF.
[12] abbreviates: read-out: % inhibition ABUTH, Table 19B, OTH1 1 % v/v.
Setting [13] is: read-out: % inhibition ABUTH, Table 19B, no OTH22, no OTH1.
The mark [14] stands for this setting: read-out: % inhibition ABUTH, Table 19B, 100 g a.e./ha, OTH1 1 % v/v.
The mark [15] stands for this setting: read-out: % inhibition ABUTH, Table 19B, 100 g a.e./ha, no OTH22, no OTH1.
[16] abbreviates: read-out: % inhibition ABUTH, Table 19B, 200 g a.e./ha, OTH1 1 % v/v.
Setting [17] is: read-out: % inhibition ABUTH, Table 19B, 200 g a.e./ha, no OTH22, no OTH1.
Setting [18] is: read-out: % inhibition ECHCF, Table 19B, OTH1 1 % v/v.
Where [19] appears, read: read-out: % inhibition ECHCF, Table 19B, no OTH22, no OTH1.
Setting [20] is: read-out: % inhibition ECHCF, Table 19B, 100 g a.e./ha, OTH1 1 % v/v.
Setting [21] is: read-out: % inhibition ECHCF, Table 19B, 100 g a.e./ha, no OTH22, no OTH1.
The mark [22] stands for this setting: read-out: % inhibition ECHCF, Table 19B, 200 g a.e./ha, OTH1 1 % v/v.
The mark [23] stands for this setting: read-out: % inhibition ECHCF, Table 19B, 200 g a.e./ha, no OTH22, no OTH1.

Take `c1cc[n+]2c(c1)-c1cccc[n+]1CC2` [diquat]: the “efficacy ABUTH” value is 5 in test [1] (30 g a.e./ha, no OTH1); 10 in test [1] (setting [4]); 15 in test [1] (70 g a.e./ha, no OTH1); 30 in test [1] (setting [5]); 20 in test [1] (100 g a.e./ha, no OTH1); 41 in test [1] (setting [6]). Moreover, the “efficacy ABUTH” value was 32 in test [1] (200 g a.e./ha, no OTH1) and 57 in test [1] (setting [7]). In addition, the “efficacy ECHCF” value is given as 19 in test [2] (30 g a.e./ha, no OTH1); 11 in test [2] (setting [4]); 33 in test [2] (70 g a.e./ha, no OTH1); 24 in test [2] (setting [5]); 43 in test [2] (100 g a.e./ha, no OTH1); 33 in test [2] (setting [6]). Further, the “efficacy ECHCF” value was 46 in test [2] (200 g a.e./ha, no OTH1) and 50 in test [2] (setting [7]). Besides, the “efficacy TRZVX” value in test [3] (30 g a.e./ha, no OTH1) is 3; in test [3] (setting [4]), 14; in test [3] (70 g a.e./ha, no OTH1), 7; in test [3] (setting [5]), 16; in test [3] (100 g a.e./ha, no OTH1), 27; in test [3] (setting [6]), 19. Further, the “efficacy TRZVX” value worked out at 46 in test [3] (200 g a.e./ha, no OTH1) and 47 in test [3] (setting [7]).

Usually inhibition stands for the drop in the measured response relative to a control, in per cent. With `CCOc1cc(Oc2ccc(C(F)(F)F)cc2Cl)ccc1[N+](=O)[O-]` [oxyfluorfen], the inhibition at 75 g/ha in test [1] (setting [8]) was 80%; in test [1] (setting [9]) it was 81%; in test [2] (setting [10]), 0%; in test [2] (setting [11]) it was 0%. For the same compound, the inhibition at 100 g/ha in test [1] (Table 19B, 100 g a.e./ha, OTH1 1 % v/v, read-out: % inhibition ABUTH) amounted to 82%; in test [1] (Table 19B, 100 g a.e./ha, no OTH22, no OTH1, read-out: % inhibition ABUTH), 82%; in test [2] (Table 19B, 100 g a.e./ha, OTH1 1 % v/v, read-out: % inhibition ECHCF), 0%; in test [2] (Table 19B, 100 g a.e./ha, no OTH22, no OTH1, read-out: % inhibition ECHCF) it was 0%. Moreover, the inhibition at 150 g/ha in test [1] (setting [8]) worked out at 87%; in test [1] (setting [9]), 84%; in test [2] (setting [10]), 0%; in test [2] (setting [11]) it was 0%. Further, the inhibition at 200 g/ha came to 92% in test [1] (Table 19B, 200 g a.e./ha, OTH1 1 % v/v, read-out: % inhibition ABUTH); 91% in test [1] (Table 19B, 200 g a.e./ha, no OTH22, no OTH1, read-out: % inhibition ABUTH); 2% in test [2] (Table 19B, 200 g a.e./ha, OTH1 1 % v/v, read-out: % inhibition ECHCF); 3% in test [2] (Table 19B, 200 g a.e./ha, no OTH22, no OTH1, read-out: % inhibition ECHCF).

For `N.N.O=C(O)C(=O)O` [OTH1], the “% inhibition ABUTH (14 DAT)” value in test [1] (2 g a.e./ha) was 0, 0, 0, 0%; in test [1] (3 g a.e./ha), 0, 0, 0, 0%; in test [1] (4 g a.e./ha), 0, 0, 0, 0%; in test [1] (5 g a.e./ha), 0, 0, 0, 0%. Also, the “% inhibition ABUTH (20 DAT)” value is listed as 0, 0, 0, 0% in test [1] (2 g a.e./ha); 0, 0, 0, 0% in test [1] (3 g a.e./ha); 0, 0, 0, 0% in test [1] (4 g a.e./ha); 0, 0, 0, 0% in test [1] (5 g a.e./ha).

Take `CP(=O)(O)CCC(N)C(=O)O` (centres unmarked) [glufosinate]: the inhibition at 75 g/ha in test [1] (setting [12]) was 68%; in test [1] (setting [13]) it was 22%; in test [2] (setting [18]), 95%; in test [2] (setting [19]), 94%. For the same compound, the inhibition at 100 g/ha in test [1] (setting [14]) amounted to 82%; in test [1] (setting [15]) it was 43%; in test [2] (setting [20]) it was 96%; in test [2] (setting [21]) it was 95%. Further, the inhibition at 150 g/ha in test [1] (setting [12]) is 90%; in test [1] (setting [13]), 74%; in test [2] (setting [18]), 99%; in test [2] (setting [19]), 98%. In addition, the inhibition at 200 g/ha in test [1] (setting [16]) came out at 98%; in test [1] (setting [17]), 89%; in test [2] (setting [22]) it was 100%; in test [2] (setting [23]), 99%.

Turning to `CN(C)C(=O)Nc1ccc(Cl)c(Cl)c1` [diuron], the inhibition at 75 g/ha in test [1] (setting [12]), in test [1] (setting [13]), in test [2] (setting [18]) and in test [2] (setting [19]) was 0% each time. Moreover, the inhibition at 100 g/ha in test [1] (setting [14]), in test [1] (setting [15]), in test [2] (setting [20]) and in test [2] (setting [21]) was 0% in each case. The inhibition at 150 g/ha in test [1] (setting [12]) worked out at 2%; in test [1] (setting [13]), 5%; in test [2] (setting [18]) it was 0%; in test [2] (setting [19]), 0%. Besides, the inhibition at 200 g/ha in test [1] (setting [16]) is 10%; in test [1] (setting [17]), 17%; in test [2] (setting [22]) it was 0%; in test [2] (setting [23]), 0%.
